What follows are molecules tested against Beta tubulin (assay: Inhibition of tubulin polymerization interacting at the colchicine binding site.).
Assay type: functional
`COc1c(O)ccc2c1ccc1c(Cc3ccc(O)cc3)c(O)cc(OC)c12` showed an IC50 of 30 µM. `COc1c(Cc2ccc(O)cc2)c(O)c(Cc2ccc(O)cc2)c2c1-c1ccc(O)cc1CC2` showed an IC50 of 30 µM. `COc1cc(O)c(Cc2ccc(O)cc2)c(CCc2cccc(O)c2)c1Cc1ccc(O)cc1` showed an IC50 of 10 µM. `COc1cc(O)cc(CCc2cccc(O)c2)c1Cc1ccc(O)cc1` showed an IC50 of 10 µM. `COc1cc(O)c(-c2c(O)cc3c(c2OC)-c2ccc(O)cc2CC3)c2c1-c1ccc(O)cc1CC2` gave an IC50 of 30 µM. `COc1cc(O)c2c(c1Cc1ccc(O)cc1)CCc1cc(O)ccc1-2` gave an IC50 of 300 µM. `COc1cc(O)c(-c2c(O)cc(OC)c3c2ccc2cc(O)ccc23)c2ccc3cc(O)ccc3c12` [CIRRHOPETALANTHIN] showed an IC50 of 30 µM. `COc1cc(O)c(-c2c(O)cc(OC)c3c2ccc2cc(O)ccc23)c2c1-c1ccc(O)cc1CC2` [CIRRHOPETALANTHRIN] was tested, and the IC50 was 30 µM. With `CC[C@]1(O)C[C@@H]2CN(CCc3c([nH]c4ccccc34)[C@@](C(=O)OC)(c3cc4c(cc3OC)N(C)[C@H]3[C@@](O)(C(=O)OC)[C@H](OC(C)=O)[C@]5(CC)C=CCN6CC[C@]43[C@@H]65)C2)C1` [VINBLASTINE] the IC50 was 1 µM.
